The text below walks through data of paper PMC10702189, “Tetrazine Glycoconjugate for Pretargeted Positron Emission Tomography Imaging of trans-Cyclooctene-Functionalized Molecular Spherical Nucleic Acids” (ACS Omega, 2023).

Data set [1] can be described thus: Ex vivo biodistribution in healthy Balb/cAnNrj mice. How it is done: (§1) Animal studies were approved by the national Project Authorization Board in Finland (licenses: ESAVI/12132/04.10.07/2017 and ESAVI/8648/2020) and were carried out in compliance with EU Directive 2010/EU/63 on the protection of animals used for scientific purposes. Healthy female Balb/cAnNrj mice (9–14 weeks old, 19 weeks old for fasting studies) were used for experiments with [^18F]FDG-Tz. Female Rj:Athymic-Foxn1^nu/nu mice (8–10 weeks old) bearing subcutaneous HER2-expressing HCC1954 tumors were used for pretargeted and control preclicked experiments with [^18F]TCO-MSNA, detailed information for the mice preparation was described earlier.[59] Animals were housed in individually ventilated cages under a 12 h light/dark cycle with ad libitum access to water and food unless otherwise stated. Animals were anesthetized with isoflurane (induction 4–5%, maintenance 1.5–2.5%, 0.4 L/min O2) and sacrificed by cervical dislocation after applying cardiac puncture for blood collection.
For [^18F]FDG-Tz ex vivo evaluation, the mice were sacrificed at 15 (n = 6), 30 (n = 4), and 60 min (n = 2) postinjection. [^18F]FDG-Tz distribution at 15 min postinjection was also studied in animals after fasting (n = 3, 4 h fasting prior to injection, water available ad libitum). Radiolabeled compound was administrated via the tail vein (1.8–11.4 MBq in 50–170 μL). For all experiments involving MSNA ex vivo measurements were performed after 60 min PET/CT imaging.
After sacrifice, tissue samples from organs of interest were dissected and weighed. Radioactivity was measured with a gamma counter (Triathler 3″; Hidex, Turku, Finland); the percentage injected radioactivity dose per gram of tissue (%ID/g) was calculated, corrected with the remaining radioactivity in the cannula, tail, and the syringe and decay-corrected to the time of injection.

Data set [2] can be described thus: Radioactivity distribution in blood components after i.v. injection in healthy mice. The format is in vivo. The conditions noted are these: for Proportion of intact tracer in plasma: radio-HPLC. The protocol: To measure the radioactivity binding to blood cells, the blood obtained by cardiac puncture was placed into a lithium heparin tube, mixed according to the manufacturer’s instructions, and placed on ice. The blood sample was centrifuged at 4 °C for 5 min at 2118 × g. The plasma was separated by pipetting, and blood cells and plasma radioactivities were measured with a 1480 Wizard gamma counter (PerkinElmer/Wallac, Turku, Finland).
To determine the radioactivity portion bound to plasma proteins, plasma was mixed with an equal volume of acetonitrile and centrifuged at 14000 × g for 2 min at r.t. The radioactivity of both the supernatant and the protein pellet was measured with Wizard.
To determine the portion of intact tracer in plasma, a sample of deproteinized plasma supernatant was diluted with 0.1% TFA in water and analyzed with radio-HPLC.[60]

Data set [3] has as its system HER2-expressing HCC1954 tumors. Nature of the data set: PET/CT imaging (pretargeted, preclicked, tracer alone) in HCC1954 tumor-bearing mice. The conditions noted are these: HCC1954 tumor-bearing female mice, 60 min postinjection. The data set is classed as in vivo. The protocol: as §1, with “collection. […]” for “collection.”
Image analysis was performed with Carimas software (version 2.10, Turku PET Centre, Turku, Finland). CT scans were utilized as an anatomical reference combined with the radioactivity signal from PET images. […] Standardized uptake values (SUV) were calculated, corrected with the remaining radioactivity in the cannula, tail, and syringe, and decay-corrected to the time of injection. […]

In the case of `O=C(CCON=C[C@H]([18F])[C@@H](O)[C@H](O)[C@H](O)CO)NCc1ccc(-c2nncnn2)cc1` [[^18F]FDG-Tz], the “Biodistribution difference between fasted and nonfasted animals” value in data set [1] (15 min postinjection, 4 h fasting) is “no statistically significant difference”. For the same compound, the “Organ accumulation in awake versus isoflurane anesthetized animals” value in data set [1] (60 min after i.v. injection) is reported as “trend of lower accumulation”. For the same compound, in data set [1] (i.v., 60 min postinjection), the Blood radioactivity came to 0.9 ± 0.3 %ID/g, the Brain uptake was determined as 0.08 ± 0.03 %ID/g, the Gallbladder radioactivity amounted to 7.0 ± 0.7 %ID/g and the Kidneys radioactivity is reported as 1.2 ± 0.4 %ID/g. Besides, in data set [1] (i.v., 60 min postinjection), the Liver radioactivity came to 3.2 ± 1.0 %ID/g and the “Tibia bone radioactivity (defluorination)” value is on record as 0.26 ± 0.04 %ID/g. In data set [2] (15 min postinjection), the “Blood cell binding of radioactivity” value is on record as 37.6% ± 3.0 and the “Plasma protein binding of radioactivity” value was 9.1% ± 3.5. Besides, in data set [2] (60 min postinjection), the “Blood cell binding of radioactivity” value stood at 58.1%, the “Plasma protein binding of radioactivity” value worked out at 22.7% and the “Proportion of intact tracer in plasma” value is reported as 52%. In addition, the “Proportion of intact tracer in plasma” value in data set [2] (first time point (15 min, n = 3)) is 93.7% ± 5.1. Further, the “Tumor SUV” value in data set [3] is reported as 0.16 ± 0.04 SUV.
